In patent US20230226074A1, “METHODS OF USE FOR PYRIMIDINES AS FERROPORTIN INHIBITORS” (Global Blood Therapeutics, Inc., priority 2020, published 2023):

Target: T1, human ferroportin (Homo sapiens, UniProt Q9NP59)
T1 construct: luciferase reporter (probably NanoLuc, inferred from the Nano-Glo Luciferase Assay System read-out); expressed in transfected cells; host or cells: CHO cells, stably transfected, expression induced with doxycycline
T1 sequence (Q9NP59 1-571): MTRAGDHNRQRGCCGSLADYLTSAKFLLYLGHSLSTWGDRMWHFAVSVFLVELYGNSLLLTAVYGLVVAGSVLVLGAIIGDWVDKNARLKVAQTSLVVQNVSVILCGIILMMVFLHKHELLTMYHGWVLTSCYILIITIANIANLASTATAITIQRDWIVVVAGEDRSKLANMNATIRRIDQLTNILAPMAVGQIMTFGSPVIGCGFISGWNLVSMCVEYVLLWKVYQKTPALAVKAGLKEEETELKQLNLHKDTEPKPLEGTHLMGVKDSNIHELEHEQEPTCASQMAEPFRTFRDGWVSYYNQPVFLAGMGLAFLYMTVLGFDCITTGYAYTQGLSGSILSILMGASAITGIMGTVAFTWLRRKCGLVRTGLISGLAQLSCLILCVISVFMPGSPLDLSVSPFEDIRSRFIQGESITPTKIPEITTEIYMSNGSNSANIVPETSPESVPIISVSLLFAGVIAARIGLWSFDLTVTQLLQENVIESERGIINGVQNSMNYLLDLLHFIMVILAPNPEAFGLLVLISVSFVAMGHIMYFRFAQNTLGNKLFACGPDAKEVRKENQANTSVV
Test: In-vitro ferroportin internalization assay (luciferase reporter)
Type: cell-based
Conditions: average pEC50; stably-transfected CHO cell line expressing human ferroportin tagged to a luciferase reporter; 6 h incubation with test compound
Method: The protocol for this assay is generally as described in WO2018/128828, incorporated herein by reference in its entirety. Functional internalization of ferroportin protein was measured using a stably-transfected CHO cell line expressing the human ferroportin tagged to a luciferase reporter. Cells were plated for 24 h in the presence of ferric ammonium citrate (FAC). Ferroportin protein expression was induced with doxycycline for 24 h. The next day, the compounds were added. Test compounds were dissolved in DMSO. Cells were incubated with the test compounds for 6 h, and subsequently luciferase activity was measured using the Nano-Glo Luciferase Assay System and Glomax (Promega, Madison, Wis.). The average pEC50 was determined for the test compounds.

Cc1sc2nc(-c3ccccn3)nc(N(C)CC(=O)Nc3cccnc3)c2c1C [Compound 183, 2-{[5,6-dimethyl-2-(pyridin-2-yl)thieno[2,3-d]pyrimidin-4-yl](methyl)amino}-N-(pyridin-3-yl)acetamide] gave a pEC50 of 7.1.
Molecule Cc1sc2nc(-c3ccccn3)nc(N(C)CC(=O)Nc3cccc(F)c3)c2c1C [Compound 242, 2-{[5,6-dimethyl-2-(pyridin-2-yl)thieno[2,3-d]pyrimidin-4-yl](methyl)amino}-N-(3-fluorophenyl)acetamide] has a pEC50 of 7.
CCC1COCCN1c1nc(-c2ccccn2)nc2scc(-c3ccccc3)c12 (stereo not shown) [Compound 198, 3-ethyl-4-[5-phenyl-2-(pyridin-2-yl)thieno[2,3-d]pyrimidin-4-yl]morpholine] gave a pEC50 of 6.
With c1ccc(-c2csc3nc(-c4ccccn4)nc(NC4CC4)c23)cc1 [Compound 203, N-cyclopropyl-5-phenyl-2-(pyridin-2-yl)thieno[2,3-d]pyrimidin-4-amine] the pEC50 was 5.7.
Work on Cc1nc(-c2ccccn2)nc(N(C)CCN(C)c2ccccc2)c1C [Compound 196, N,5,6-trimethyl-N-{2-[methyl(phenyl)amino]ethyl}-2-(pyridin-2-yl)pyrimidin-4-amine] yielded a pEC50 of 6.7.
Work on Cc1cc(NCCCn2ccnc2)nc(-c2ccccn2)n1 [Compound 229, N-[3-(1H-imidazol-1-yl)propyl]-6-methyl-2-(pyridin-2-yl)pyrimidin-4-amine] yielded a pEC50 of under 5.0.
With Cc1cc(NCCC(=O)NCc2ccncc2)nc(-c2ccccn2)n1 [Compound 235, 3-{[6-methyl-2-(pyridin-2-yl)pyrimidin-4-yl]amino}-N-[(pyridin-4-yl)methyl]propanamide] the pEC50 was 5.3.
c1ccc(-c2csc3nc(-c4ccccn4)nc(N4CCN(c5ccccn5)CC4)c23)cc1 [Compound 207, 1-[5-phenyl-2-(pyridin-2-yl)thieno[2,3-d]pyrimidin-4-yl]-4-(pyridin-2-yl)piperazine] was tested, and the pEC50 was 6.
Work on c1ccc(-c2csc3nc(-c4ccccn4)nc(N4CCC4)c23)cc1 [Compound 204, 2-[4-(azetidin-1-yl)-5-phenylthieno[2,3-d]pyrimidin-2-yl]pyridine] yielded a pEC50 of 5.6.
In the case of COCCN(CCOC)c1nc(-c2ccccn2)nc2sc(-c3ccccc3)cc12 [Compound 210, N,N-bis(2-methoxyethyl)-6-phenyl-2-(pyridin-2-yl)thieno[2,3-d]pyrimidin-4-amine], the pEC50 is reported as 6.4.
